Test results published in patent US20080108702A1, “Use of Acetyl-Leucine for Preparing a Drug for Treating Balance Disorders” (priority 2005, published 2008).

How the values were obtained:
[1] = test system: mouse median vestibular neurons (MVN); assay: Electrophysiological study in current clamp mode on median vestibular neurons; format: cell-based; settings: for effect on action potentials of depolarized neurons: depolarized neurons (approximately −35 mV), after several minutes of application; for Membrane potential: hyperpolarized neurons (approximately −70 mV); for Action potential frequency / Action potential height / Depolarization threshold / Resting potential: neurons spontaneously active at the resting potential
Protocol: An electrophysiological study was conducted on mouse median vestibular neurons (MVN) in which the membrane potential was artificially maintained at various resting values. In this study, the effects of the D and L enantiomers of acetyl-leucine (1 mM) were tested on the membrane properties of neurons in “current clamp” mode at various membrane potential values: normal membrane potential (approximately −45 mV), potential maintained at a hyperpolarized level of approximately −70 mV or potential maintained at a depolarized level of approximately −35 mV.

[2] = test system: surgical unilateral neurotomy model in the cat; assay: Surgical unilateral neurotomy model (preliminary tests); format: in vivo
[3] = test system: patients with an indication for acoustic neurinoma excision or for vestibular neurotomy; assay: Ability to maintain a standing position eight days following neurotomy (randomized, placebo-controlled); format: in vivo, human
Protocol: Sixty patients with an indication for acoustic neurinoma excision or for vestibular neurotomy were included and randomized. Patients were treated for 60 days either with Tanganil® (six injections of two 500 mg vials by IV route, with an interval of 12 hours between injections, the first taking place one hour after the surgery, followed by an oral treatment at a dose of two 500 mg tablets, one in the morning and one in the evening) or with a placebo.
Vestibular deficit was measured according to the methods described in Vertigo and the practitioner [Les vertiges et le praticien] by P. Tran Ba Huy and C. De Waele (Coll Pathologie Sciences Formation [in French], Ed. John Libbey Eurotext, Paris, 1996) and in Vertigo [Les vertiges] by G. Rancurel, O. Sterkers, E. Vitte, foreword by G. Freyss (Ed. Méd. Spécia. [in French], 1989).
Vestibular reflex was tested at day zero (D0) before neurotomy by caloric testing to objectivize vestibular hyporeflexia or areflexia. This test consists of successively irrigating with warm water then cold the right external auditory meatus then the left, causing in the semicircular canal an endolymph current which moves the ampullary crest. Caloric response is expressed by the appearance of a nystagmus that beats toward the side of the stimulated ear when warm water is applied and toward the opposite side when cold water is applied. The nystagmic response was recorded by video nystagmography and its frequency calculated, i.e., the number of nystagmic beats occurring between the 60th and 90th seconds following the initiation of stimulation. This number quantifies the vestibular response.
The difference in responses between one ear and the other expresses so-called hypovalence, i.e., the difference between the warm and cold responses on the left side and the warm and cold responses on the right side, divided by the total number of responses. In normal subjects, hypovalence is less than 15%. Hypovalence is the main sign of damage to the peripheral vestibular apparatus.
The principle criterion was “able to maintain a standing position at D8” (Yes/No)

[4] = test system: patients with an indication for acoustic neurinoma excision or for vestibular neurotomy; assay: Symptoms (vertigo and vomiting) rated by patients on 10 cm visual analog scales (VAS); format: in vivo, human
Protocol: Sixty patients with an indication for acoustic neurinoma excision or for vestibular neurotomy were included and randomized. Patients were treated for 60 days either with Tanganil® (six injections of two 500 mg vials by IV route, with an interval of 12 hours between injections, the first taking place one hour after the surgery, followed by an oral treatment at a dose of two 500 mg tablets, one in the morning and one in the evening) or with a placebo. Subjective signs (vertigo and vomiting) were rated by patients on a 10 cm VAS from “absent” to “highly incapacitating”.

[5] = test system: patients with an indication for acoustic neurinoma excision or for vestibular neurotomy; assay: Balance evaluated by static posturography; format: in vivo, human
Protocol: Sixty patients with an indication for acoustic neurinoma excision or for vestibular neurotomy were included and randomized. Patients were treated for 60 days either with Tanganil® (six injections of two 500 mg vials by IV route, with an interval of 12 hours between injections, the first taking place one hour after the surgery, followed by an oral treatment at a dose of two 500 mg tablets, one in the morning and one in the evening) or with a placebo. Static posturography (not performed at D8 if the subject could not remain standing) was carried out in a standing position under four conditions (eyes open or closed, with or without foam carpeting). With foam carpeting and/or eyes closed, patients are placed under conditions which minimize the role of visual and proprioceptive information. Shifts in a subject's center of gravity during a given time period are recorded in a statokinesigram. This plot makes it possible to study oscillation amplitudes and surface areas. “Anteroposterior” oscillations can be separated from “right-left” oscillations.

vertigo symptomatology = settings: clinical results reported by various authors; cited from earlier work
[6] = test system: guinea pig after unilateral labyrinthectomy; settings: cited from earlier work
[7] = test system: cats having undergone vestibular neurotomy; settings: oral route, 28 mg per kg per day; cats after vestibular neurotomy; cited from earlier work

For `CC(=O)N[C@H](CC(C)C)C(=O)O` [Acetyl-D-leucine], the “effect on action potentials of depolarized neurons” value ([1]; 1 mM) was “action potentials stop due to blocking of the membrane potential at a more depolarized level”, the Membrane potential ([1]; before application (baseline)) was −72.2 ± 5.2 mV and the Membrane potential ([1]; during application, 1 mM) was −67.2 ± 4.6 mV. The “effect on the membrane potential of hyperpolarized neurons” value ([1]; hyperpolarized neurons, 1 mM) was “significantly increases”, the Action potential frequency ([1]; before application (baseline)) was 11.5 ± 6.8 Hz and the Action potential height ([1]; before application (baseline)) was 59.0 ± 7.7 mV. The Depolarization threshold ([1]; before application (baseline)) was −28.1 ± 4.5 mV, the Resting potential ([1]; before application (baseline)) was −42.7 ± 3.6 mV and the Action potential frequency ([1]; during application, 1 mM) was 8.9 ± 7.7 Hz. The Action potential height ([1]; during application, 1 mM) was 50.7 ± 17.3 mV, the Depolarization threshold ([1]; during application, 1 mM) was −27.0 ± 10.2 mV and the Resting potential ([1]; during application, 1 mM) was −42.0 ± 3.6 mV. For the same compound, the “activity in surgical unilateral neurotomy model” value [2] was “active”.
For `CC(=O)N[C@@H](CC(C)C)C(=O)O` [Acetyl-L-leucine], the “effect on action potentials of depolarized neurons” value ([1]; 1 mM) was “not observed”, the Membrane potential ([1]; before application (baseline)) was −70.0 ± 2.1 mV and the Membrane potential ([1]; during application, 1 mM) was −71.6 ± 3.2 mV. It also gave an Action potential frequency ([1]; before application (baseline)) of 14.1 ± 9.0 Hz, an Action potential height ([1]; before application (baseline)) of 59.0 ± 7.3 mV and a Depolarization threshold ([1]; before application (baseline)) of −30.4 ± 5.6 mV. The Resting potential ([1]; before application (baseline)) was −44.5 ± 2.1 mV, the Action potential frequency ([1]; during application, 1 mM) was 12.4 ± 7.8 Hz and the Action potential height ([1]; during application, 1 mM) was 49.8 ± 11.4 mV. The Depolarization threshold ([1]; during application, 1 mM) was −27.7 ± 8.4 mV, the Resting potential ([1]; during application, 1 mM) was −42.7 ± 3.7 mV and the “activity in surgical unilateral neurotomy model” value [2] was “active”.
With `CC(=O)N[C@@H](CC(C)C)C(=O)O` (racemic) [Tanganil®, acetyl-leucine] the “difference between the two treatment groups, able to maintain a standing position at D8” value ([3]; 25 patients whose vestibular deficit was greater than 75%) was “no significant difference”, the “difference between the two treatment groups, able to maintain a standing position at D8” value ([3]; 31 patients whose vestibular deficit was less than or equal to 75%, χ^2=0.048) was “statistically significant difference” and the “effect on compensation after neurotomy” value ([3]; patient population exhibiting no vestibular functioning before neurotomy) was “no effect”. For the same compound, the “effect on compensation after neurotomy” value ([3]; patients exhibiting residual vestibular functioning) was “accelerates the compensation”, the “difference between Tanganil and placebo, able to maintain a standing position at D8” value ([3]; principle analysis of 49 patients) was “no statistically significant difference” and the “patients able to maintain a standing position at D8” value ([3]; principle analysis of 49 patients, 13 of 22 patients given Tanganil, IV then oral treatment) was 59.1%. For the same compound, the “patients able to maintain a standing position at D8” value ([3]; subgroup with vestibular deficit less than or equal to 75%, 12 of 16 patients) was 75%, the “average change on the vertigo VAS” value ([4]; D8, vestibular deficit less than or equal to 75%) was −23.5 mm and the “difference vs placebo on vertigo VAS” value ([4]; D8, vestibular deficit less than or equal to 75%, Wilcoxon test p=0.037) was “statistically significant difference”. For the same compound, the “difference vs placebo on vomiting VAS” value ([4]; vestibular deficit greater than 75%) was “No significant difference”, the “difference vs placebo on vertigo VAS” value ([4]; vestibular deficit greater than 75%, Wilcoxon test p=0.154) was “no significant difference” and the “effect on vomiting VAS vs placebo” value ([4]; vestibular deficit less than or equal to 75%, significant difference between the two groups) was “reduction in vomiting severity”. The “static posturography, difference vs placebo” value ([5]; D8, vestibular deficit greater than 75%, eyes open or closed and/or with or without foam) was “either no significant difference was observed between Tanganil® and the placebo or a significant difference was observed between the two groups in favor of the placebo”, the “right/left posturography (postural oscillations)” value ([5]; D8, vestibular deficit less than or equal to 75%, with foam, eyes open, p=0.034 vs placebo) was “+7.9 mm” and the “right/left posturography, difference vs placebo” value ([5]; D8, without foam, eyes open test) was “no significant difference”. For the same compound, the “static posturography, difference vs placebo” value ([5]; vestibular deficit less than or equal to 75%, regardless of experimental conditions) was “significant difference between treatment groups in favor of Tanganil®”, the “right/left posturography (postural oscillations)” value ([5]; vestibular deficit less than or equal to 75%, with foam, eyes closed, p=0.016 vs placebo) was “+5.4 mm” and the “right/left posturography (postural oscillations)” value ([5]; vestibular deficit less than or equal to 75%, without foam, eyes closed, p=0.028 vs placebo) was “+2.8 mm”. The “cases with improvement in vertigo symptomatology, including the disappearance of vertigo attacks” value (vertigo symptomatology) was “more than 95%”, the “effect on vestibular compensation” value ([6]; after unilateral labyrinthectomy in the guinea pig) was “accelerate vestibular compensation” and the “effect on normal vestibular functioning” value ([6]; guinea pig) was “no effect”. The “effect on recovery of locomotor equilibrium” value [7] was “facilitates the recovery of locomotor equilibrium”.
